In the NIST ThermoML archive (doi:10.1016/j.jct.2012.07.009) one finds mass density data, which are given here for three molecules.

Numbers after ± are expanded uncertainties.

What is called mass density is mass per unit of volume.

The data set is described as follows: an = ratio of the nth substance listed. The conditions noted are these: 298.15 K, 101 kPa, Liquid, Vibrating tube method.

Turning to `O=C1CNC(=O)CN1` [2,5-diketopiperazine] + O, the mass density is, setting by setting: (a1 = 0.0025) 998.08 ± 0.15 kg/m3; (a1 = 0.0053) 998.93 ± 0.15 kg/m3; (a1 = 0.0101) 1000.45 ± 0.15 kg/m3; (a1 = 0.0134) 1001.53 ± 0.15 kg/m3; (a1 = 0.016) 1002.32 ± 0.15 kg/m3.
`NCC(=O)O` [2-aminoacetic acid] + O: the mass density runs as follows: (a1 = 0.1072) 1039.03 ± 0.16 kg/m3; (a1 = 0.1494) 1051.67 ± 0.16 kg/m3; (a1 = 0.1778) 1060.02 ± 0.17 kg/m3; (a1 = 0.2042) 1068.38 ± 0.17 kg/m3; (a1 = 0.2232) 1074.06 ± 0.17 kg/m3; (a1 = 0.2433) 1080.28 ± 0.17 kg/m3.
Take `O=C(O)CNCC(=O)O` [N-(carboxymethyl)glycine] + O: the mass density (a1 = 0.1079) is on record as 1027.42 ± 0.16 kg/m3; the mass density (a1 = 0.1403) was 1040.98 ± 0.16 kg/m3; the mass density (a1 = 0.1768) came out at 1056.44 ± 0.17 kg/m3; the mass density (a1 = 0.1982) stood at 1065.68 ± 0.17 kg/m3; the mass density (a1 = 0.2153) was 1072.61 ± 0.17 kg/m3; the mass density (a1 = 0.2301) was 1077.43 ± 0.17 kg/m3.
